Measurements reported in patent US12233071B2, “Medicament for treating cough” (NIPPON CHEMIPHAR CO., LTD, priority 2018, dated 2025).
“Also recorded” adds a separate entry of the source.

Legend:
[1] = system: citric acid (0.25 M)-induced cough; assay: Citric acid-induced cough in OVA-sensitized cough model guinea pigs, oral administration; type: in vivo, Hartly strain guinea pigs; settings: oral 1 mg/kg 1 h before citric acid stimulation; for cough response increased due to airway inflammation: OVA-sensitized cough group guinea pigs
Excerpt: When OVA, a foreign antigen, is inhaled, airway inflammation accompanied by eosinophil infiltration is induced. Consequently, OVA-sensitized guinea pigs present symptoms of allergic cough and atopic cough. Thus, the guinea pigs have been widely used as a pathological model (antigen-induced airway inflammation model animals) reflecting human clinical conditions. Here, in the Examples of the present application, whether a compound(s) of the present application elicited cough inhibitory action against the pathological model was evaluated.
The OVA-sensitized cough model guinea pigs were produced specifically by the following procedure.
Note that in the following procedure, Ovalbumin or mepyramine maleate is dissolved in saline and then used.
The number of citric acid-induced coughs is measured. Then, a mixture of 200 μL of 0.05% OVA (Ovalbumin) and 100 μL of Imject Alum (prepared by suspending aluminum hydroxide and magnesium hydroxide, each at a concentration of 40 mg/mL, in water and by adding an inactivating stabilizer thereto) per guinea pig is administered intraperitoneally (i.p.).
After the intraperitoneal administration, 0.5% OVA is given for 5 min by inhalation at days 7, 14, 21, and 28.
Note that at 30 min before the inhalation, mepyramine maleate (10 mg/kg) is given i.p. to prevent a shock symptom.
At Day 35, 0.5% ovalbumin is given for 60 min by inhalation. Note that at 30 min before the inhalation, mepyramine maleate (10 mg/kg) is given i.p. to prevent a shock symptom.
The next day of the final 0.5% ovalbumin challenge (day 35), the test is conducted.
(§1) OVA-sensitized cough model guinea pigs were used and stimulated with 0.25 M citric acid by the same procedure as of Example 9 to induce cough reflux. For guinea pigs used in this Example, Hartly strain guinea pigs were used for any of the below-described pretreatment guinea pigs, sham group guinea pigs, and OVA-sensitized cough group guinea pigs.
as §1, with “10” for “9”

[2] = system: citric acid (0.25 M)-induced cough; assay: Citric acid-induced cough reflux in pretreatment mice, oral administration; type: in vivo, ICR strain mice
[3] = system: citric acid (0.1 M)-induced cough; assay: Citric acid-induced cough in airway inflammation (LPS) model mice, oral administration; type: in vivo, ICR strain mice; settings: oral 0.3 mg/kg 1 h before 0.1 M citric acid stimulation
Description: Model mice with chronic cough caused by airway inflammation (referred to as “airway inflammation model mice”) were produced.
The airway inflammation model mice were produced while the mice were nasally instilled with lipopolysaccaride (LPS:1 μg/100 μL) daily for 3 days under diethyl ether inhalation anesthesia.
In addition, experiments for evaluating medicament efficacy on the airway inflammation model mice were conducted at 24 h after the final LPS administration.
Cough reflux is induced by inhalation of (in the case of mice, 0.1 M or 0.25 M and in the case of guinea pigs, 0.25 M or 0.5 M) citric acid by mice or guinea pigs under non-anesthesia conditions. […]
(§2) The respiration and the cough reflux are measured in accordance with the body-plethysmograph method. […] The respiration is recorded in a PC (IdeaPad 300: Lenovo) for measurement by measuring, as a change in volume of the cylinder, the chest movement of each experimental animal in the cylinder by using a PowerLab (ML826 PowerLab 2/26: AD Instruments) via a respiratory flow meter. […] This change is recorded using the respiratory flow meter. This frequency is recorded to measure the number of coughs. The data is analyzed by LabChart version 8 (ADInstruments). In addition, immediately before inhalation of citric acid, the respiratory frequency per 15 sec is measured. […]

[4] = system: citric acid (0.5 M)-induced cough; assay: Citric acid-induced cough reflux in pretreatment guinea pigs, oral administration; type: in vivo, Hartly strain guinea pigs; settings: guinea pigs; for inhibition of citric acid-induced cough (number of coughs): oral (compound A 1, 3, 10 mg/kg; compound B 1, 3, 10, 30 mg/kg); for inhibition of citric acid-induced cough (number of coughs) / dose at which a significant inhibitory action on citric acid-induced cough was exhibited: 0.5 M citric acid 1 h after administration; for dose at which a significant inhibitory action on citric acid-induced cough was exhibited: oral
Excerpt: (§3) Cough reflux is induced by inhalation of (in the case of mice, 0.1 M or 0.25 M and in the case of guinea pigs, 0.25 M or 0.5 M) citric acid by mice or guinea pigs under non-anesthesia conditions. The citric acid is made aerosol by using an ultrasonic nebulizer (NE-U17: OMRON Corporation), and is inhaled while the air is supplied with an artificial respirator (SN-480-7: Shinano Seisakusho). The citric acid aerosol has an average particle size of from 1 to 8 μm, and the artificial respirator is used to supply the air at a one-time ventilation volume of 6 mL, a frequency of 30 times per min, and an inhalation period of 3 min.
The respiration and the cough reflux are measured in accordance with the body-plethysmograph method. The plethysmograph used includes: a plastic-made, cylindrical cylinder part in which the trunk of each mouse or guinea pig is housed; and a cap part that covers the head portion (any plastic-made cylinder is allowed as long as each experimental animal can be put in; in the case of the mouse, for instance, the part with a diameter of 4 cm and a length of 7 cm was used). An exhaust hole is created at an upper cylinder portion so as to be able to connect, via a silicon tube, to a respiratory flow meter (TP-602T: NIHON KOHDEN CORPORATION). To tightly seal the inside of the cylinder, a rubber or celluloid collar is attached to the neck of each animal, and the cap covering the whole head is used to fix them. The head-attached cap part has an exhaust port and an inhalation port created for inhalation of a cough-inducing substance. In addition, a screw-type lid is attached to a tail portion of the cylinder so as to move in or out each experimental animal. Each mouse is put in the cylinder, allowed to play for at least 30 min, adapted to an experimental environment, and then subjected to the experiment. The respiration is recorded in a PC (IdeaPad 300: Lenovo) for measurement by measuring, as a change in volume of the cylinder, the chest movement of each experimental animal in the cylinder by using a PowerLab (ML826 PowerLab 2/26: AD Instruments) via a respiratory flow meter. When a cough is induced, the chest of the experimental animal is moved vigorously, which causes an instantaneous large volume change in the cylinder. This change is recorded using the respiratory flow meter. This frequency is recorded to measure the number of coughs. The data is analyzed by LabChart version 8 (ADInstruments). In addition, immediately before inhalation of citric acid, the respiratory frequency per 15 sec is measured.
In this way, the effects were investigated.
At that time, Hartly strain guinea pigs were used as the guinea pigs, and 0.5 M citric acid was used as the citric acid.
In this way, the effects were investigated. Here, 0.5 M citric acid was used as the pretreated citric acid.

[5] = system: ACh-induced contraction of bronchial smooth muscle; assay: Contraction of tracheobronchial smooth muscles excised from guinea pig (isometric tension, organ bath)
Description: An animal was sacrificed by phlebotomy while the ventral aorta was dissected under urethane (2 g/kg, i.p.) anesthesia. Then, a left major bronchial tissue was excised. After a connective tissue and blood vessels were removed, each ring specimen with a width of about 3 mm was prepared and suspended in an organ bath. Then, the isometric tension was measured while the resting tension was set to 1.0 g. After the baseline tension was stabilized, whether each ring specimen was subject to an acetylcholine (ACh: 10^−3 M)-mediated contraction reaction was verified. Then, the following mater was investigated. […] Next, a tracheal or left major bronchial tissue was excised. After a connective tissue and blood vessels were removed, each ring specimen with a width of about 3 mm was prepared and suspended in an organ bath. Then, the isometric tension was measured while the resting tension was set to 1.0 g. After the baseline tension was stabilized, whether each ring specimen was subject to an acetylcholine (ACh: 10^−3 M)-mediated contraction reaction was verified. Then, the following mater was investigated. […] The specimen was likewise treated with just 0.1% DMSO.

[6] = system: citric acid (0.25 M)-induced cough; assay: Citric acid-induced cough in mice, local application by inhalation using a nebulizer; type: in vivo, ICR strain mice; settings: inhalation of 10, 30 or 100 μg/mL by nebulizer, 0.25 M citric acid after 4 min
Excerpt: as §3, §2

| SMILES | cough response increased due to airway inflammation [1] | change in the number of coughs in sham group guinea pigs [1] | medicament efficacy on citric acid-induced cough at 0.3 mg/kg ([2]; oral 0.3 mg/kg, examination of Example 3) | cough inhibition rate, compound A versus the same dose of dihydrocodeine ([2]; oral 10 mg/kg, 0.25 M citric acid 1 h after administration) | inhibition of citric acid-induced cough (number of coughs) ([2]; oral 0.3, 1, 3 or 10 mg/kg, citric acid stimulation 1 h after administration) | dose at which a significant inhibitory action on citric acid-induced cough was exhibited ([2]; oral, citric acid stimulation 1 h after administration) [mg/kg] | cough response increased due to airway inflammation ([3]; airway inflammation group mice) | change in the number of coughs in sham group mice ([3]; sham group mice (saline instead of LPS), sodium salt, 0.3 mg/kg) | inhibition of citric acid-induced cough (number of coughs) [4] | dose at which a significant inhibitory action on citric acid-induced cough was exhibited [4] [mg/kg] | effect on baseline tension of bronchial smooth muscle ([5]; 10^−5 M, solvent water) | effect on 10^−5 M Ach-induced contraction reaction of bronchial smooth muscle ([5]; 10^−5 M, solvent water, about 50% contraction of the maximum contraction) | antitussive effect by local application [6] | medicament efficacy on citric acid-induced cough at 1 mg/kg ([4]; oral 1 mg/kg, investigation of Example 10 (FIG. 10)) | effect on ACh-induced contraction of bronchial smooth muscle ([5]; 10^−6 M in DMSO at final 0.1%, 10^−5 M ACh) |
| --- | --- | --- | --- | --- | --- | --- | --- | --- | --- | --- | --- | --- | --- | --- | --- |
| O=C1CC(=O)N(c2cccc(-c3nnn[nH]3)c2)c2ccc3ccccc3c2N1.[Na] [compound A, 5-[3-(1H-tetrazol-5-yl)phenyl]-1H-naphtho[1,2-b][1,4]diazepin-2,4(3H,5H)-dione sodium salt] | inhibited completely | a change in the number of coughs was unobserved | did not elicit any significant medicament efficacy | comparable | inhibited citric acid-induced cough in a dose-dependent manner | ≥ 1 | inhibited completely | a change in the number of coughs was unobserved; also recorded: did not elicit any significant medicament efficacy | inhibited citric acid-induced cough in a dose-dependent manner | ≥ 1 | did not affect | did not affect | elicited an antitussive effect, in a dose-dependent manner, more strongly and more rapidly using a lower dose than the case of oral administration |  |  |
| O=C1CC(=O)N(c2ccc(NC(=O)c3ccccc3I)cc2)c2ccc3ccccc3c2N1 [compound B, 5-[4-(2-iodobenzoylamino)phenyl]-1H-naphtho[1,2-b][1,4]diazepin-2,4(3H,5H)-dione] | inhibited completely | a change in the number of coughs was unobserved |  |  |  |  |  |  | inhibited citric acid-induced cough in a dose-dependent manner | ≥ 1 |  |  |  | does not elicit any significant medicament efficacy | Neither 0.1% DMSO itself, which was a solvent, nor compound B (at 10^−6 M) affected the ACh-induced contraction of bronchial smooth muscle |
